The values that follow come from article PMC11698612, “Roles of NET Peptides With Known Antimicrobial Activity and Toxicity in Immune Response” (Journal of Immunology Research, 2024).

Data set [1] has as its system TIB-71 RAW 264.7 macrophages. In words: MTT cytotoxicity assay. The format is cell-based, Mus musculus. The note with it: for cytotoxicity (MTT), broad screening / cytotoxicity (MTT) / concentration from which NET1 and NET2 displayed similar cytotoxicity: LPS-free; for cytotoxicity (MTT), broad screening: peptide 0.125-64 µg/mL; for cytotoxicity (MTT), broad screening / cytotoxicity (MTT): triplicates; for cytotoxicity (MTT): peptide concentrations up to 4 μg/mL; for concentration from which NET1 and NET2 displayed similar cytotoxicity: screening 64 to 0.125 µg/mL; for increase of toxicity compared to that in the absence of LPS: with LPS (1, 10, 100 ng/mL) versus without LPS. How it is done: The TIB-71 RAW 264.7 macrophage line, which was obtained from Mus musculus, was used in this study, and this cell line was supplied by ATCC (Manassas, VA, USA). The MTT Cell Proliferation Kit (Sigma–Aldrich, St. Louis, MO, USA), a colorimetric method, was used to evaluate the damage caused by the peptides in eukaryotic cells. TIB-71 RAW 264.7 macrophages were revived under appropriate culture conditions (37°C, 5% CO2) to prepare for the experiment. The final concentration of peptides ranged 0.125–64 μg/mL. Samples were examined in triplicates for each concentration. Cells incubated without peptide treatment under the same conditions were used as the control. Magainin 2 (Mag2), a known natural AMP with no cytotoxic effects, was used as a positive control. The results were obtained using a 96-well plate reader at 550 and 690 nm.
A general note: Tetrazolium assays rely on reduction of a dye to a coloured formazan, in cell work by metabolically active cells.

In data set [2] the test system is IFN-γ secretion from TIB-71 macrophages. In words: IFN-γ secretion by ELISA. Type of data set: cell-based, mouse. How it is done: Within the scope of the ELISA study, the effect of varying concentrations of the peptides we synthesized on the mouse macrophage cell line was examined. In this study, a cell line that was not treated with AMPs and LPS, a cell line treated only with AMPs, a cell line treated only with LPS, and a cell line treated with both LPS and AMPs were used. To find the changing TNF-α ratio after incubation, the kit named Mouse Tumor Necrosis Factor α ELISA Kit-RAB0477 (Sigma-Aldrich) was applied according to the protocol. Graphpad Prism (9.0.0) was utilized for performing a one-way ANOVA test (α = 0.05) for the statistical analysis. Similarly, ELISA was applied to measure the change in IFN-γ levels in response to the peptides and LPS. In this experiment, the Mouse IFN-γ ELISA Kit-E-EL-[…] was applied according to the specified kit protocol, and the results were evaluated.
(In general: An ELISA detects its analyte on a solid surface through an enzyme-linked reagent.)

Data set [3] relates to TNF-α secretion from TIB-71 macrophages. Briefly: TNF-α secretion by ELISA. Type of data set: cell-based, mouse. The settings on record: for TNF-α response: peptide together with LPS (50 ng/mL), NET1 versus peptide only, NET2 at 2 or 4 µg/mL. On the procedure:
Within the scope of the ELISA study, the effect of varying concentrations of the peptides we synthesized on the mouse macrophage cell line was examined.
In this study, a cell line that was not treated with AMPs and LPS, a cell line treated only with AMPs, a cell line treated only with LPS, and a cell line treated with both LPS and AMPs were used. To find the changing TNF-α ratio after incubation, the kit named Mouse Tumor Necrosis Factor α ELISA Kit-RAB0477 (Sigma–Aldrich) was applied according to the protocol. Graphpad Prism (9.0.0) was utilized for performing a one-way ANOVA test (α = 0.05) for the statistical analysis.

For data set [4], the system named is IL-6 expression in TIB-71 macrophages. In words: IL-6 expression by western blotting. The note with it: for IL-6 expression: peptide alone, normalized to β-actin, versus unstimulated cells, repeated twice. The format is cell-based, mouse. On the procedure:
Protein was extracted from TIB-71 cells for use in western blotting. For this purpose, the supernatant of the cells grown in the appropriate environment was separated for ELISA, whereas protein was extracted from the cellular pellets. Protein obtained using the Protein Extraction Kit (Abcam, Cambridge, UK) was prepared for western blotting. The concentrations of protein samples were determined using the Pierce BCA protein assay kit (Thermo Fisher Scientific). The results were analyzed by reading them on a 96-well plate reader at 565 nm. IL-6 was separated by 12% (w/v) SDS-PAGE and transferred onto a PVDF membrane using the wet transfer technique to compare the expression levels of the markers. Proteins were measured using horseradish peroxidase (HRP)-based clarity western ECL substrate and read using ChemiDoc devices. The area of the bands obtained in the western blotting results was computed using Image Lab software. Specifically, the volume occupied by the bands on the membrane was determined, and the band volume of IL-6 was normalized to that of β-actin to assess protein expression in a semiquantitative manner. Microsoft Excel was used for the semiquantitative analysis. IL-6 secretion by mouse macrophages in response to AMP exposure was examined by GraphPad Prism 9.0.0 one-way ANOVA test (GraphPad, La Jolla, CA, USA).
Background: In western blotting, separated proteins are transferred to a membrane and probed.

Where [5] appears, read: peptide 0.5 µg/mL, response to decreasing LPS concentrations (1, 10, 100 ng/mL).
Where [6] appears, read: peptide 2 µg/mL, LPS 1, 10, 100 ng/mL.
The mark [7] stands for this setting: peptide 4 µg/mL, LPS 1, 10, 100 ng/mL.
Where [8] appears, read: peptide together with LPS (50 ng/mL).

“Also recorded” adds a separate entry of the source.

For “RLLLRLLRRLLRLLLR-NH2 [NET2, designed LL-37-like 16-amino acid antimicrobial peptide, …-NH2]”, the “cytotoxicity (MTT), broad screening” value in data set [1] was “low cytotoxicity; also recorded: lower toxicity than the other peptides”. Also, in data set [1], the “cytotoxicity (MTT)” value is given as “did not cause significant cytotoxicity”. In addition, the “concentration from which NET1 and NET2 displayed similar cytotoxicity” value in data set [1] was 4 µg/mL. For the same substance, the “cytotoxicity in the presence of LPS” value in data set [1] (setting [5]) is given as “increased cytotoxicity”; in data set [1] (setting [6]), “increased with as the LPS concentration decreased”; in data set [1] (setting [7]), “increased as the LPS concentration decreased”. In addition, the “increase of toxicity compared to that in the absence of LPS” value in data set [1] (peptide 4 µg/mL) was “tenfold”. Also, the IFN-γ secretion result in data set [2] (peptide alone, LPS-free medium, three concentrations, versus control, one-way ANOVA) is “lower IFN-γ expression than NET1; also recorded: significantly increased”; in data set [2] (setting [8]), “significantly increased”. Besides, the TNF-α secretion entry in data set [3] (peptide alone, LPS-free medium) is “decreased with decreasing peptide concentrations”. For the same substance, the TNF-α response result in data set [3] is “increased significantly”. Moreover, in data set [4] (NET2 used alone, no LPS), the “IL-6 expression lower than that in NET1-treated cells” value worked out at 50%. For the same substance, the “IL-6 expression in cells treated with LPS” value in data set [4] (peptide 8 µg/mL with LPS) was “anti-inflammatory effect”. The “IL-6 expression in combination with LPS” value in data set [4] (peptide 2 and 4 µg/mL with LPS, versus the other groups) is on record as “significantly increased”. Further, in data set [4] (no LPS), the IL-6 expression result is on record as “reduced IL-6 expression”.

As to “RLLLRLLRRLLRLLLR-NH2 [NET1, designed LL-37-like 16-amino acid antimicrobial peptide, …-NH2]”, the “cytotoxicity (MTT), broad screening” value in data set [1] was “low cytotoxicity”. In addition, the “cytotoxicity (MTT)” value in data set [1] is “did not cause significant cytotoxicity”. Also, the “concentration from which NET1 and NET2 displayed similar cytotoxicity” value in data set [1] worked out at 4 µg/mL. The “cytotoxicity in the presence of LPS” value is “decreased NET1 cytotoxicity” in data set [1] (setting [5]); “lower cytotoxicity” in data set [1] (peptide 1 µg/mL, LPS 1, 10, 100 ng/mL); “lower cytotoxicity than NET2” in data set [1] (setting [6]); “lowest toxicity” in data set [1] (setting [7]). Further, in data set [1] (peptide 4 µg/mL), the “increase of toxicity compared to that in the absence of LPS” value is “threefold”. Further, the IFN-γ secretion result in data set [2] (setting [8]) is reported as “decrease IFN-γ expression”. For the same substance, the TNF-α response result in data set [3] is on record as “did not differ”. The “IL-6 expression compared with the other groups” value in data set [4] (NET1 at the lowest concentration of 2 µg/mL) was “threefold lower”. In addition, the IL-6 expression entry in data set [4] (no LPS) is “decreased”.
